{
  "source": "patent US20240389846A1",
  "about": "“Methods for Localization of Cancerous Tissue Using Fluorescent Molecular Imaging Agent for Diagnosis or Treatment” (Vergent Bioscience, Inc., priority 2022, published 2024)",
  "key": {"tumor [1]": {"system": "tumor", "assay": "Phase 2 study: clinically significant events (CSEs) during tumor removal with imaging agent and NIR", "assay_type": "in vivo, human", "details": "Phase 2 study of VGT-309 in Australia", "source_text": "CSEs are one way to measure whether an imaging agent, such as VGT-309, adds a clinical benefit to the diagnosis and treatment process. In this context, CSEs generally fall into one of three categories: (1) localization of hard-to-find tumors, (2) identification of positive resection margins, and (3) identification of additional primary and metastatic lesions that were not previously detected using existing technologies."}, "tumor [2]": {"system": "tumor", "assay": "Intraoperative NIR imaging of patients given intravenous VGT-309 before surgery (Examples 1-3)", "assay_type": "in vivo, human"}, "cancerous tissue": {"system": "cancerous tissue", "assay": "Preclinical / animal model studies: duration of VGT-309 fluorescence in tissue after administration", "assay_type": "in vivo", "source_text": "There are several molecular imaging agents that are currently in various stages of development and testing, but of these agents VGT-309 is particularly advantageous. VGT-309 targets and covalently binds to cathepsin targets, which are present in larger amounts in solid tumors and tumor margins than in normal tissues. When this binding occurs, the quencher is cleaved from the molecule and VGT-309 becomes “active” at which point the tumor will fluoresce under near-infrared (NIR) light."}},
  "data": [
    {"molecule": "CC1(C)C(/C=C/C2=C(Cl)C(=C/C=C3/N(CCCCCC(=O)NCCNC(=O)c4c(F)c(F)c(OCC(=O)[C@H](CCCCNC(=O)CCCCCN5/C(=C/C=C/C=C/C=C\\C6=[N+](CCCCS(=O)(=O)[O-])c7ccc8ccccc8c7C6(C)C)C(C)(C)c6c5ccc5ccccc65)NC(=O)[C@H](Cc5ccccc5)NC(=O)OCc5ccccc5)c(F)c4F)c4ccc5cc(S(=O)(=O)O)ccc5c4C3(C)C)/CCC2)=[N+](CCCS(=O)(=O)[O-])c2ccc(N(CCCS(=O)(=O)O)CCCS(=O)(=O)O)cc21", "note": "[VGT-309]", "values": [
      {"measurement": "fraction of patients who experienced a clinically significant event (CSE)", "setting": "tumor [1]", "result": "one third"},
      {"measurement": "visualization of tumor under NIR imaging", "setting": "tumor [2]; Example 1, patient, 0.32 mg/kg approximately 21 hours prior to surgery", "result": "clearly show the location and extent of the tumor"},
      {"measurement": "localization of primary tumor under NIR", "setting": "tumor [2]; Example 2, patient, 0.16 mg/kg approximately 21 hours prior to surgery", "result": "more easily locate the primary tumor"},
      {"measurement": "detection of lymph node spread by fluorescence under NIR", "setting": "tumor [2]; Example 2, patient, 0.16 mg/kg approximately 21 hours prior to surgery, biopsy confirmed that the cancer had spread", "result": "unexpected fluorescence in a more distant lymph node"},
      {"measurement": "identification of previously identified (primary) tumor", "setting": "tumor [2]; Example 3, patient with regrowth after radiation, 0.32 mg/kg approximately 18.5 hours prior to surgery", "result": "able to quickly identify and remove the previously identified tumor"},
      {"measurement": "identification of additional tumors (metastatic spread) using NIR", "setting": "tumor [2]; Example 3, patient, 0.32 mg/kg approximately 18.5 hours prior to surgery, abnormal lung tissue confirmed cancerous under NIR", "result": "able to identify additional tumors using NIR"},
      {"measurement": "time VGT-309 may continue to emit a signal in tissue following administration", "setting": "cancerous tissue; animal model studies suggest", "result": "out to seven days"},
      {"measurement": "time window after administration in which VGT-309 can fluoresce cancerous tissue", "setting": "cancerous tissue; based on preclinical studies, under NIR light", "result": "two hours to four days"}
    ]}
  ]
}
